Data published in patent US11708283B2, “Metal-chelating compositions and their use in methods of removing or inhibiting barium scale” (CORNELL UNIVERSITY, priority 2018, dated 2023).

Columns and labels:
[1] = Recovery and reuse of macropa for BaSO4 dissolution
Method: The capacity for recovery and reuse of macropa post-BaSO4 dissolution was assessed qualitatively. FIG. 7 schematically depicts a process for ligand recovery and reuse. A solution of macropa-dissolved BaSO4 was acidified to release the Ba^2+ from the ligand as BaSO4. After filtration of the precipitated BaSO4 and basification of the solution, the recovered ligand was successfully reused for another cycle of BaSO4 dissolution. More specifically, a sample of macropa-dissolved BaSO4 (9.66 mM macropa, 8.74 mM Ba(NO3)2, 26.04 mM Na2SO4) was acidified to pH 1 with concentrated HCl to protonate the ligand, inducing Ba^2+ decomplexation and precipitation as BaSO4. The macropa solution was isolated by filtration, basified to pH 8 with 2 M NaOH, and combined with another portion of BaSO4. Within 40 minutes, no visible precipitate remained in the vial, signaling that the recycled macropa dissolved all the BaSO4.
In other experiments, an initial solution of macropa-dissolved BaSO4 was prepared by stirring at 450 RPM a suspension containing BaSO4 (8.74 mM Ba(NO3)2; 26.04 mM Na2SO4), macropa (9.66 mM), and 2M NaOH (35 μL) in 1M NaHCO3 (326 μL). The final volume was 1035 μL and the pH was 8. […] The solution was adjusted to pH 1 (by litmus paper) by adding concentrated HCl (3 drops). The resultant suspension was stirred for 10 minutes and then filtered through a nylon syringe filter (0.22 μm). The syringe filter was rinsed with 0.1 M HCl (2×100 μL) to facilitate full recovery of the ligand. The pH of the filtrate was carefully adjusted back to pH 8 (by litmus paper) with 2 M NaOH. To this recovered solution of macropa was added another portion of BaSO4 (0.009 mmol BaNO3, 0.027 mmol Na2SO4). The suspension was stirred at 450 RPM and RT. The dissolution of BaSO4 was monitored visually until all of the BaSO4 was dissolved, marking the completion of a full cycle of ligand recovery and reuse. Another cycle was then initiated via the addition of concentrated HCl to the solution. A total of five cycles were performed and the time to full dissolution of BaSO4 was recorded. […] The precipitate may be attributed to a small amount of BaSO4 that remains undissolved as a consequence of ligand loss over time, which occurs because aliquots of the solution are removed to assess the pH during the recovery and reuse process.

[2] = Aqueous solubility of ligand (stock solution preparation); assay type: physicochemical; details: stock solution could not be prepared
Method: Stock solutions of macropa and macropaquin were prepared in H2O. […] The exact ligand concentrations were determined from the potentiometric titration curves with KOH. Protonation equilibria of macropa^2− and macropaquin^2− were determined by adding standardized KOH to a solution (20 mL) containing ligand (˜0.02 mmol), 0.1 M HCl (0.1 mmol), and 1 M KCl (1.9 mmol). The titration method employed a 0.1 mV/min drift limit with a maximum wait time of 90 sec between addition of base and measurement. At least 70 data points were collected over the pH range of 2.5-10.5 (macropa) or 2.5-11.3 (macropaquin). The protonation constants, defined in Eq. 1, were calculated from the average of at least 4 independent titrations using the appropriate software.

| aqueous solubility [2] | SMILES | time to complete dissolution of BaSO4 (initial solution) ([1]; 9.66 mM macropa, 8.74 mM Ba(NO3)2, 26.04 mM Na2SO4, pH 8) | time until no visible BaSO4 precipitate remained with recycled ligand ([1]; first reuse, pH 8) | efficacy on reuse four more times ([1]; ligand recovered and reused) | BaSO4 dissolution during the 4th and 5th cycles ([1]; recovery and reuse cycles) |
| --- | --- | --- | --- | --- | --- |
|  | O=C(O)c1cccc(CN2CCOCCOCCN(Cc3cccc(C(=O)O)n3)CCOCCOCC2)n1 [macropa, 6,6-((1,4,10,13-tetraoxa-7,16-diazacyclooctadecane-7,16-diyl)bis(methylene))dipicolinic acid] | 17 min | ≤ 40 min | negligible loss in efficacy or speed of dissolution | dissolution of most of the BaSO4 was rapidly achieved within the first hour |
| poor aqueous solubility | O=S(=O)(O)c1ccc(O)c2nc(CN3CCOCCOCCN(Cc4ccc5c(S(=O)(=O)O)ccc(O)c5n4)CCOCCOCC3)ccc12 [macroquin-SO3, 2,2′-((1,4,10,13-tetraoxa-7,16-diazacyclooctadecane-7,16-diyl)bis(methylene))bis(8-hydroxyquinoline-5-sulfonic acid)] |  |  |  |  |
